“And” between values parts separate entries of the source, which are not always exact repeats. Equal values may be shown once.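 Briefly, cells in 96-well plates were exposed to five compound concentrations for 48 h, and endpoints were estimated by linear interpolation. Abbreviation: GI50, concentration required for 50% inhibition of growth.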 The source made the active and inactive calls. Rule as the data show it: active = GI50 up to about 1.1 µM and inactive = higher.
What was measured:
Test in all cases: growth of human tumour cells (NCI), 48 h
SW-620 = system: SW-620
NCI-H460 = system: NCI-H460
MCF7 = system: MCF7
SR = system: SR
SK-MEL-28 = system: SK-MEL-28
NCI-H522 = system: NCI-H522
UACC-257 = system: UACC-257
HCT-15 = system: HCT-15
HCC 2998 = system: HCC 2998
SK-MEL-5 = system: SK-MEL-5
DU-145 = system: DU-145
786-0 = system: 786-0
MOLT-4 = system: MOLT-4
MDA-MB-231 = system: MDA-MB-231
T47D = system: T47D
OVCAR-3 = system: OVCAR-3
CAKI-1 = system: CAKI-1
MDA-N = system: MDA-N
LOX IMVI = system: LOX IMVI
SNB-19 = system: SNB-19
A498 = system: A498
OVCAR-5 = system: OVCAR-5
MDA-MB-435 = system: MDA-MB-435
IGROV-1 = system: IGROV-1
SN12C = system: SN12C
K562 = system: K562
PC-3 = system: PC-3
RPMI-8226 = system: RPMI-8226
SK-MEL-2 = system: SK-MEL-2
SF-539 = system: SF-539
COLO 205 = system: COLO 205
UO-31 = system: UO-31
HCT-116 = system: HCT-116
M14 = system: M14
NCI-H226 = system: NCI-H226
HT-29 = system: HT-29
Malme-3M = system: Malme-3M
KM12 = system: KM12
ACHN = system: ACHN
OVCAR-8 = system: OVCAR-8
OVCAR-4 = system: OVCAR-4
A549 = system: A549
Hs-578T = system: Hs-578T
HL-60 = system: HL-60
NCI/ADR-RES = system: NCI/ADR-RES
EKVX = system: EKVX
NCI-H23 = system: NCI-H23
HOP-92 = system: HOP-92
TK-10 = system: TK-10
SF-268 = system: SF-268
SF-295 = system: SF-295
HOP-62 = system: HOP-62
U-251 = system: U-251
UACC-62 = system: UACC-62
CCRF-CEM = system: CCRF-CEM
SK-OV-3 = system: SK-OV-3
SNB-75 = system: SNB-75
RXF 393 = system: RXF 393

O=[N+]([O-])c1ccc(/N=N/c2c(O)ccc3ccccc23)cc1
GI50 (SW-620): > 100 µM (inactive) | GI50 (NCI-H460): > 100 µM (inactive) | GI50 (MCF7): > 100 µM (inactive) | GI50 (SR): > 22.2 µM (inactive) and 21.2 µM (inactive) | GI50 (SK-MEL-28): > 100 µM (inactive) | GI50 (NCI-H522): 0.293 µM (active) | GI50 (UACC-257): > 100 µM (inactive) | GI50 (HCT-15): > 100 µM | GI50 (HCC 2998): > 100 µM (inactive) | GI50 (SK-MEL-5): > 100 µM (inactive) | GI50 (DU-145): > 100 µM (inactive) | GI50 (786-0): > 100 µM (inactive) | GI50 (MOLT-4): 95.1 µM (inactive) | GI50 (MDA-MB-231): > 100 µM (inactive) | GI50 (T47D): > 100 µM (inactive) | GI50 (OVCAR-3): 50.5 µM (inactive) | GI50 (CAKI-1): > 100 µM (inactive) | GI50 (MDA-N): > 100 µM (inactive) | GI50 (LOX IMVI): > 100 µM (inactive) | GI50 (SNB-19): > 100 µM (inactive) | GI50 (A498): > 100 µM (inactive) | GI50 (OVCAR-5): > 100 µM (inactive) and 65.2 µM (inactive) | GI50 (MDA-MB-435): > 100 µM (inactive) | GI50 (IGROV-1): 19.4 µM (inactive) and > 32 µM (inactive) | GI50 (SN12C): > 100 µM (inactive) | GI50 (K562): > 100 µM (inactive) | GI50 (PC-3): 73.5 µM (inactive) | GI50 (RPMI-8226): > 100 µM (inactive) | GI50 (SK-MEL-2): 84.9 µM (inactive) | GI50 (SF-539): > 100 µM (inactive) | GI50 (COLO 205): > 100 µM (inactive) | GI50 (UO-31): > 100 µM (inactive) and 98.4 µM (inactive) | GI50 (HCT-116): > 100 µM (inactive)

N#Cc1ccc(-c2ccc(Cl)cc2)n(C2OC(CO)C(O)C(O)C2O)c1=S (stereo not drawn)
GI50 (SW-620): > 100 µM (inactive) | GI50 (NCI-H460): > 100 µM (inactive) and 86.5 µM (inactive) | GI50 (MCF7): 62.4 µM (inactive) | GI50 (SR): > 100 µM (inactive) | GI50 (SK-MEL-28): > 100 µM (inactive) | GI50 (UACC-257): > 100 µM (inactive) | GI50 (HCT-15): > 100 µM | GI50 (HCC 2998): > 100 µM (inactive) | GI50 (SK-MEL-5): > 100 µM (inactive) and 98.6 µM (inactive) | GI50 (DU-145): > 100 µM (inactive) | GI50 (M14): > 100 µM (inactive) | GI50 (MOLT-4): > 100 µM (inactive) | GI50 (MDA-MB-231): > 100 µM (inactive) | GI50 (T47D): > 100 µM (inactive) | GI50 (OVCAR-3): > 100 µM (inactive) | GI50 (NCI-H226): > 100 µM (inactive) | GI50 (HT-29): > 100 µM (inactive) | GI50 (CAKI-1): > 100 µM (inactive) | GI50 (MDA-N): > 100 µM (inactive) | GI50 (Malme-3M): > 100 µM (inactive) | GI50 (LOX IMVI): > 100 µM (inactive) | GI50 (KM12): > 100 µM (inactive) | GI50 (OVCAR-5): > 100 µM (inactive) | GI50 (ACHN): > 100 µM (inactive) | GI50 (SN12C): > 100 µM (inactive) | GI50 (K562): > 100 µM (inactive) | GI50 (OVCAR-8): > 100 µM (inactive) | GI50 (PC-3): > 100 µM (inactive) | GI50 (OVCAR-4): > 100 µM (inactive) | GI50 (RPMI-8226): > 100 µM (inactive) | GI50 (A549): > 100 µM (inactive) | GI50 (SF-539): > 100 µM (inactive) | GI50 (UO-31): > 100 µM (inactive) | GI50 (HCT-116): > 100 µM (inactive) and 86.1 µM (inactive) | GI50 (Hs-578T): > 100 µM (inactive) | GI50 (HL-60): > 100 µM (inactive)

Cc1oc2ccccc2c(=O)c1Cn1nnc2ccccc21
GI50 (SW-620): > 100 µM (inactive) | GI50 (NCI-H460): 43.8 µM (inactive) | GI50 (MCF7): 21.8 µM (inactive) | GI50 (SR): 35.9 µM (inactive) | GI50 (SK-MEL-28): 74 µM (inactive) | GI50 (UACC-257): 26.4 µM (inactive) | GI50 (HCT-15): 96.2 µM | GI50 (NCI/ADR-RES): 60.7 µM (inactive) | GI50 (HCC 2998): > 100 µM (inactive) | GI50 (SK-MEL-5): 20.5 µM (inactive) | GI50 (DU-145): 25.5 µM (inactive) | GI50 (M14): 80.7 µM (inactive) | GI50 (EKVX): > 100 µM (inactive) | GI50 (786-0): > 100 µM (inactive) | GI50 (MOLT-4): 37.2 µM (inactive) | GI50 (MDA-MB-231): 91.4 µM (inactive) | GI50 (NCI-H23): > 100 µM (inactive) | GI50 (HOP-92): 18.6 µM (inactive) | GI50 (T47D): 10.6 µM (inactive) | GI50 (OVCAR-3): 30.6 µM (inactive) | GI50 (NCI-H226): 53.1 µM (inactive) | GI50 (HT-29): 91.8 µM (inactive) | GI50 (TK-10): > 100 µM (inactive) | GI50 (SF-268): 34.3 µM (inactive) | GI50 (MDA-N): 39.4 µM (inactive) | GI50 (Malme-3M): > 100 µM (inactive) | GI50 (LOX IMVI): 73.3 µM (inactive) | GI50 (KM12): > 100 µM (inactive) | GI50 (SNB-19): > 100 µM (inactive) | GI50 (A498): 62.1 µM (inactive) | GI50 (OVCAR-5): > 100 µM (inactive) | GI50 (MDA-MB-435): 41.3 µM (inactive) | GI50 (SF-295): > 100 µM (inactive) | GI50 (ACHN): 41.6 µM (inactive) | GI50 (SN12C): > 100 µM (inactive) | GI50 (HOP-62): > 100 µM (inactive) | GI50 (U-251): > 100 µM (inactive) | GI50 (K562): 56.6 µM (inactive) | GI50 (OVCAR-8): 43.3 µM (inactive) | GI50 (UACC-62): 41.7 µM (inactive) | GI50 (CCRF-CEM): 95.1 µM (inactive) | GI50 (PC-3): > 100 µM (inactive) | GI50 (OVCAR-4): 53.3 µM (inactive) | GI50 (RPMI-8226): 35.7 µM (inactive) | GI50 (A549): 70.8 µM (inactive) | GI50 (SK-MEL-2): > 100 µM (inactive) | GI50 (SF-539): > 100 µM (inactive) | GI50 (COLO 205): 42.9 µM (inactive) | GI50 (UO-31): 47.3 µM (inactive) | GI50 (HCT-116): 59.7 µM (inactive) | GI50 (Hs-578T): 83.2 µM (inactive) | GI50 (HL-60): 48.5 µM (inactive) | GI50 (SK-OV-3): > 100 µM (inactive) | GI50 (SNB-75): 45.6 µM (inactive)

CCOc1ccc(-c2nc(-c3oc4ccccc4c(=O)c3OC(C)=O)cs2)cc1
GI50 (SW-620): > 10 µM (inactive) | GI50 (MCF7): 3.52 µM (inactive) | GI50 (SR): > 10 µM (inactive) | GI50 (SK-MEL-28): 6.71 µM (inactive) | GI50 (UACC-257): > 10 µM (inactive) | GI50 (HCT-15): 7.13 µM | GI50 (HCC 2998): > 10 µM (inactive) | GI50 (SK-MEL-5): > 10 µM (inactive) | GI50 (DU-145): > 10 µM (inactive) | GI50 (M14): > 10 µM (inactive) | GI50 (RXF 393): 2.62 µM (inactive) | GI50 (EKVX): > 10 µM (inactive) | GI50 (786-0): > 10 µM (inactive) | GI50 (MOLT-4): > 10 µM (inactive) | GI50 (MDA-MB-231): > 10 µM (inactive) | GI50 (NCI-H23): > 10 µM (inactive) | GI50 (T47D): > 10 µM (inactive) | GI50 (HT-29): > 10 µM (inactive) | GI50 (TK-10): > 10 µM (inactive) | GI50 (SF-268): 9.06 µM (inactive) | GI50 (CAKI-1): > 10 µM (inactive) | GI50 (MDA-N): 6.18 µM (inactive) | GI50 (Malme-3M): > 10 µM (inactive) | GI50 (LOX IMVI): > 10 µM (inactive) | GI50 (KM12): > 10 µM (inactive) | GI50 (IGROV-1): > 10 µM (inactive) | GI50 (SF-295): > 10 µM (inactive) | GI50 (SN12C): 9.93 µM (inactive) | GI50 (HOP-62): > 10 µM (inactive) | GI50 (K562): 5.5 µM (inactive) | GI50 (OVCAR-8): > 10 µM (inactive) | GI50 (UACC-62): > 10 µM (inactive) | GI50 (CCRF-CEM): 7.57 µM (inactive) | GI50 (PC-3): > 10 µM (inactive) | GI50 (RPMI-8226): > 10 µM (inactive) | GI50 (A549): > 10 µM (inactive) | GI50 (COLO 205): > 10 µM (inactive) | GI50 (HL-60): > 10 µM (inactive) | GI50 (SK-OV-3): > 10 µM (inactive) | GI50 (SNB-75): 8.97 µM (inactive)

From ChEMBL document CHEMBL1201862, “PubChem BioAssay data set” (2004)
